# Data reported in PubChem BioAssay (NCI).
# Several values for one entry are separate records, joined by “and”; a condition that tells them apart may be missing. Equal values may be shown once.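 These data come from cells grown in 96-well plates and exposed to compound for 48 hours at five concentrations. GI50 is the concentration that inhibits growth by half. At the TGI there is no net growth.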
# Experiments:
# Experiment in all cases: NCI tumour cell line growth inhibition, 48 h
# U251 CNS = tested on: U251 CNS
# TK-10 renal = tested on: TK-10 renal
# HCT-15 colon = tested on: HCT-15 colon
# CAKI-1 renal = tested on: CAKI-1 renal
# OVCAR-3 ovarian = tested on: OVCAR-3 ovarian
# NCI-H226 lung = tested on: NCI-H226 lung
# RPMI-8226 leukemia = tested on: RPMI-8226 leukemia
# SNB-75 CNS = tested on: SNB-75 CNS
# NCI/ADR-RES ovarian = tested on: NCI/ADR-RES ovarian
# IGROV1 ovarian = tested on: IGROV1 ovarian
# RXF 393 renal = tested on: RXF 393 renal
# DU-145 prostate = tested on: DU-145 prostate
# EKVX NSCLC = tested on: EKVX NSCLC
# M14 melanoma = tested on: M14 melanoma
# A498 renal = tested on: A498 renal
# NCI-H522 lung = tested on: NCI-H522 lung
# SK-MEL-2 melanoma = tested on: SK-MEL-2 melanoma
# HCT-116 colon = tested on: HCT-116 colon
# A549 NSCLC = tested on: A549 NSCLC
# MOLT-4 leukemia = tested on: MOLT-4 leukemia
# MALME-3M melanoma = tested on: MALME-3M melanoma
# SW-620 colon = tested on: SW-620 colon
# UO-31 renal = tested on: UO-31 renal
# KM12 colon = tested on: KM12 colon
# HT29 colon = tested on: HT29 colon
# NCI-H460 lung = tested on: NCI-H460 lung
# ACHN renal = tested on: ACHN renal
# SNB-19 CNS = tested on: SNB-19 CNS
# BT-549 breast = tested on: BT-549 breast
# SF-539 CNS = tested on: SF-539 CNS
# MDA-N = tested on: MDA-N
# PC-3 prostate = tested on: PC-3 prostate
# UACC-257 melanoma = tested on: UACC-257 melanoma
# OVCAR-5 ovarian = tested on: OVCAR-5 ovarian
# SN12C renal = tested on: SN12C renal
# MDA-MB-435 = tested on: MDA-MB-435
# CCRF-CEM leukemia = tested on: CCRF-CEM leukemia
# SF-295 CNS = tested on: SF-295 CNS
# OVCAR-8 ovarian = tested on: OVCAR-8 ovarian
# SK-MEL-5 melanoma = tested on: SK-MEL-5 melanoma
# LOX IMVI melanoma = tested on: LOX IMVI melanoma
# UACC-62 melanoma = tested on: UACC-62 melanoma
# COLO 205 colon = tested on: COLO 205 colon
# 786-0 renal = tested on: 786-0 renal
# MDA-MB-231 breast = tested on: MDA-MB-231 breast
# HS 578T breast = tested on: HS 578T breast
# HL-60(TB) leukemia = tested on: HL-60(TB) leukemia
# SF-268 CNS = tested on: SF-268 CNS
# K-562 leukemia = tested on: K-562 leukemia
# NCI-H23 lung = tested on: NCI-H23 lung
# SK-MEL-28 melanoma = tested on: SK-MEL-28 melanoma
# SK-OV-3 ovarian = tested on: SK-OV-3 ovarian
# HOP-62 NSCLC = tested on: HOP-62 NSCLC
# SR leukemia = tested on: SR leukemia
# T-47D breast = tested on: T-47D breast
# HOP-92 NSCLC = tested on: HOP-92 NSCLC
# OVCAR-4 ovarian = tested on: OVCAR-4 ovarian
# MCF7 breast = tested on: MCF7 breast
# HCC-2998 colon = tested on: HCC-2998 colon
smiles,measurement,setting,value
O=Cc1c(C(=O)O)[nH]c(=O)[nH]c1=O,TGI,U251 CNS,> 100 µM
same,TGI,TK-10 renal,> 100 µM
same,TGI,HCT-15 colon,> 100 µM
same,TGI,CAKI-1 renal,> 100 µM
same,TGI,OVCAR-3 ovarian,> 100 µM
same,TGI,NCI-H226 lung,> 100 µM
same,TGI,RPMI-8226 leukemia,> 100 µM
same,TGI,SNB-75 CNS,> 100 µM
same,TGI,NCI/ADR-RES ovarian,> 100 µM
same,TGI,IGROV1 ovarian,> 100 µM
same,TGI,RXF 393 renal,> 100 µM
same,TGI,DU-145 prostate,> 100 µM
same,TGI,EKVX NSCLC,> 100 µM
same,TGI,M14 melanoma,> 100 µM
same,TGI,A498 renal,> 100 µM
same,TGI,NCI-H522 lung,> 100 µM
same,TGI,SK-MEL-2 melanoma,> 100 µM
same,TGI,HCT-116 colon,> 100 µM
same,TGI,A549 NSCLC,> 100 µM
same,TGI,MOLT-4 leukemia,> 100 µM
same,TGI,MALME-3M melanoma,> 100 µM
same,TGI,SW-620 colon,> 100 µM
same,TGI,UO-31 renal,> 100 µM
same,TGI,KM12 colon,> 100 µM
same,TGI,HT29 colon,> 100 µM
same,TGI,NCI-H460 lung,> 100 µM
same,TGI,ACHN renal,> 100 µM
same,TGI,SNB-19 CNS,> 100 µM
same,TGI,BT-549 breast,> 100 µM
same,TGI,SF-539 CNS,> 100 µM
same,TGI,MDA-N,> 100 µM
same,TGI,PC-3 prostate,> 100 µM
same,TGI,UACC-257 melanoma,> 100 µM
same,TGI,OVCAR-5 ovarian,> 100 µM
same,TGI,SN12C renal,> 100 µM
same,TGI,MDA-MB-435,> 100 µM
same,TGI,CCRF-CEM leukemia,> 100 µM
same,TGI,SF-295 CNS,> 100 µM
same,TGI,OVCAR-8 ovarian,> 100 µM
same,TGI,SK-MEL-5 melanoma,> 100 µM
same,TGI,LOX IMVI melanoma,> 100 µM
same,TGI,UACC-62 melanoma,> 100 µM
same,TGI,COLO 205 colon,> 100 µM
same,TGI,786-0 renal,> 100 µM
same,TGI,MDA-MB-231 breast,> 100 µM
same,TGI,HS 578T breast,> 100 µM
same,TGI,HL-60(TB) leukemia,> 100 µM
same,TGI,SF-268 CNS,> 100 µM
same,TGI,K-562 leukemia,> 100 µM
same,TGI,NCI-H23 lung,> 100 µM
same,TGI,SK-MEL-28 melanoma,> 100 µM
same,TGI,SK-OV-3 ovarian,> 100 µM
Cc1cn(C2CC(N(O)Cc3ccccc3)C(CO[Si](C)(C)C(C)(C)C)O2)c(=O)[nH]c1=O (configuration not stated),TGI,U251 CNS,38.6 µM and 28.4 µM
same,GI50,TK-10 renal,37.8 µM and 18 µM
same,TGI,TK-10 renal,> 100 µM and 31.8 µM
same,TGI,HCT-15 colon,96.6 µM
same,TGI,HOP-62 NSCLC,36.5 µM and 29.9 µM
same,TGI,CAKI-1 renal,76.1 µM and 31.1 µM
same,TGI,OVCAR-3 ovarian,32 µM
same,TGI,NCI-H226 lung,35.6 µM and 36.9 µM
same,TGI,RPMI-8226 leukemia,> 100 µM
same,GI50,SNB-75 CNS,39 µM and 16.2 µM
same,TGI,SNB-75 CNS,> 100 µM and 29.8 µM
same,TGI,IGROV1 ovarian,44.8 µM and 29.4 µM
same,TGI,RXF 393 renal,26.8 µM
same,TGI,DU-145 prostate,> 100 µM and 32 µM
same,TGI,SR leukemia,89.4 µM
same,TGI,EKVX NSCLC,> 100 µM and 33.9 µM
same,TGI,M14 melanoma,39 µM and 30.6 µM
same,TGI,A498 renal,48.7 µM and 26.8 µM
same,TGI,NCI-H522 lung,32.2 µM
same,GI50,T-47D breast,61.7 µM and 18.6 µM
same,TGI,T-47D breast,> 100 µM and 33.6 µM
same,TGI,SK-MEL-2 melanoma,38.3 µM
same,TGI,HCT-116 colon,34.8 µM and 29.7 µM
same,GI50,A549 NSCLC,35.8 µM and 16.7 µM
same,TGI,A549 NSCLC,> 100 µM and 31.5 µM
same,TGI,MOLT-4 leukemia,> 100 µM
same,TGI,MALME-3M melanoma,31.8 µM
same,TGI,SW-620 colon,69.2 µM and 34.1 µM
same,GI50,UO-31 renal,32.6 µM and 12.3 µM
same,TGI,UO-31 renal,> 100 µM and 24.9 µM
same,TGI,KM12 colon,51.7 µM and 31 µM
same,TGI,HOP-92 NSCLC,36.8 µM and 29.6 µM
same,TGI,HT29 colon,52.9 µM and 31.5 µM
same,TGI,NCI-H460 lung,33.3 µM and 32.2 µM
same,TGI,ACHN renal,98.1 µM and 31.4 µM
same,TGI,SNB-19 CNS,> 100 µM and 33.2 µM
same,TGI,BT-549 breast,34.7 µM and 30 µM
same,TGI,SF-539 CNS,33.2 µM and 29.5 µM
same,TGI,MDA-N,35.1 µM and 31.7 µM
same,TGI,PC-3 prostate,61.7 µM and 28 µM
same,TGI,UACC-257 melanoma,67.5 µM and 30 µM
same,TGI,OVCAR-5 ovarian,42.8 µM and 32.7 µM
same,TGI,SN12C renal,30.6 µM and 29.7 µM
same,TGI,MDA-MB-435,33.1 µM and 31.9 µM
same,TGI,CCRF-CEM leukemia,> 100 µM
same,TGI,SF-295 CNS,39.6 µM and 31 µM
same,TGI,OVCAR-8 ovarian,84.1 µM and 32 µM
same,TGI,SK-MEL-5 melanoma,33.1 µM and 30.2 µM
same,TGI,OVCAR-4 ovarian,83.6 µM and 31.5 µM
same,TGI,UACC-62 melanoma,26 µM and 30 µM
same,TGI,MCF7 breast,> 100 µM and 35.1 µM
same,TGI,COLO 205 colon,35.8 µM and 32.6 µM
same,TGI,786-0 renal,30.1 µM and 31.1 µM
same,TGI,MDA-MB-231 breast,32.6 µM and 31.3 µM
same,TGI,HS 578T breast,41.6 µM and 34.5 µM
same,TGI,HCC-2998 colon,41.7 µM and 34.3 µM
same,TGI,HL-60(TB) leukemia,> 100 µM
same,GI50,SF-268 CNS,34.6 µM and 16.7 µM
same,TGI,SF-268 CNS,> 100 µM and 31 µM
same,TGI,K-562 leukemia,> 100 µM
same,TGI,NCI-H23 lung,66.3 µM and 31.3 µM
same,GI50,SK-MEL-28 melanoma,37.5 µM and 16.9 µM
same,TGI,SK-MEL-28 melanoma,> 100 µM and 30.8 µM
same,GI50,SK-OV-3 ovarian,62 µM and 16.5 µM
same,TGI,SK-OV-3 ovarian,> 100 µM and 30.1 µM
